Here are results for 6 molecules from publication PMC3236741 (PLoS ONE, 2011).

Series [1] can be described thus: ^125I-Ang-(1-12) metabolism by plasma membranes from human atrial appendage, HPLC with inline γ-detector. The conditions noted are these: human atrial plasma membrane 50 µg, 1 nmol/L substrate, 15 min pre-incubation, 60 min at 37°C, HPLC γ-detection, mean ± SEM, n = 9.
Experimental: Membranes were prepared at 4°C in a manner similar to the approaches previously described by our laboratory [52] and by Urata et al. [26] Frozen atrial tissue (50–100 mg) was homogenized at 4°C in 1 mL PBS (pH 7.4) in a Qiagen TissueLyzer (Valencia, CA). The homogenate was centrifuged at low spin (200 g) for 5 min at 4°C to remove the connective tissues and cell debris. The supernatant was transferred into a new tube and centrifuged at 28,000 g for 20 min at 4°C to collect the plasma membrane. The pellet was resuspended in PBS and centrifuged as described above. Finally, the pellet was resuspended in PBS and stored at −80°C till its use for metabolism studies. The concentration of each cardiac membrane preparation is expressed in terms of protein concentration measured by Bradford Reagent using bovine serum albumin (BSA) as the standard; the results were normalized in terms of per mg protein.
For ^125I-Ang-(1-12) metabolism studies, plasma membranes (50 µg per reaction mixture) were preincubated for 15 min under various combinations of RAS and peptidases inhibitors (50 µM each). After preincubation of plasma membranes with the inhibitors, human ^125I-Ang-(1-12) (1 nmol/L; specific activity 3,900 cpm/fmol) was added to the reaction medium and incubated for an additional 60 min at 37°C. At the end of the incubation time, the reaction was stopped by adding equal volume of 1% phosphoric acid, mixed well, and centrifuged at 28,000 g for 20 min to remove the plasma membrane. […] On the day of HPLC analysis, the samples were filtered before separation by reverse-phase high-performance liquid chromatography. We used a linear gradient from 10% to 50% mobile phase B at a flow rate of 0.35 mL/min at ambient temperature. The solvent system consisted of 0.1% phosphoric acid (mobile phase A) and 80% acetonitriles/0.1% phosphoric acid (mobile phase B). The eluted ^125I products were monitored by an in-line flow-through gamma detector (BioScan Inc., Washington, DC). Products were identified by comparison of retention time of synthetic [^125I] standard peptides and the data were analyzed with Shimadzu LCSolution (Kyoto, Japan) acquisition software.
For series [2], the target named is T1, chymase (Homo sapiens, UniProt P23946).
T1 construct: hydrolysis of 1 mM N-suc-AAPF-pNA in the plasma membrane of six human atrial tissues; from tissue; host or cells: human left atrial appendage tissue, plasma membrane fraction
T1 sequence (P23946 22-247): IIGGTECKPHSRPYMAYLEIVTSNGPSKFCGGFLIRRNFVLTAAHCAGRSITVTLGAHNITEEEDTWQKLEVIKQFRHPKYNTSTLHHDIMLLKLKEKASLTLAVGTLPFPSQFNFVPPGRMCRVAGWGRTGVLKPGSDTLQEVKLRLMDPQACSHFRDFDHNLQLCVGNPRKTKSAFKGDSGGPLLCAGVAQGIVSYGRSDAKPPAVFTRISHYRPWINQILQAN
The series is described as follows: Hydrolysis of colorimetric substrate N-suc-AAPF-pNA by human plasma membrane with or without chymostatin. It counts as biochemical. The conditions noted are these: chymostatin 50 µM; 1 mM N-suc-AAPF-pNA; 50 mM Tris pH 8.0, 1.5 M NaCl, 1% DMSO; 37°C, 0–180 min; absorbance 410 nm; six human atrial tissues. Here is the method:
Chymase activity was also monitored by evaluating the hydrolysis of 1 mM N-suc-AAPF-pNA in the plasma membrane of six human atrial tissues. Briefly, all assays were performed in a total reaction volume of 200 µL in the 96-well microtiter plates containing plasma membranes with or without the presence of chymostatin (chymase inhibitor; 50 µM) as described above in 50 mM Tris buffer (pH 8.0) containing 1.5 M NaCl and 1% dimethylsulphoxide. The increase in absorbance at 410 nm was measured at 37°C for different time points (0–180 min) for the released p-nitroaniline. In addition, Ang II formation from ^125I-Ang-(1-12) was also investigated in the absence and in the presence of TEI-F00806 (100 µM; an orally active chymase-specific inhibitor provided by Teijin Pharma, Tokyo, Japan). Briefly, plasma membranes isolated from human atrial tissue (50 µg per reaction mixture) and ^125I-Ang-(1-12) were incubated in the presence or absence of TEI-F00806 (as described above for chymostatin) for 37°C for 60 min. At the end of incubation, samples were analyzed by HPLC for Ang II formation from ^125I-Ang-(1-12).

Series [3] has as its system Ang I induced carotid artery vasoconstriction. The conditions noted are these: administration of chymostatin in enalapril-treated SHR rats; ref Becari et al. [30]; cited from earlier work. An excerpt: A critical role for chymase in accounting for the processing of Ang-(1-12) is reinforced through the corresponding consistency of the chymase activity measured in each of the human samples. Since the atrial tissue employed in these studies was obtained from subjects undergoing cardiac surgery for the treatment of heart rhythm disorders (Table 2), we cannot exclude the possibility that the relatively high chymase activity reflects increased expression of this enzyme in this condition. Although an increase in cardiac chymase activity has been reported in both clinical and experimental forms of h ...

Series [4] in a line: plasma membrane (50 µg) isolated from human atrial appendage, Minus Lisinopril group. As to conditions: 37°C, up to 60 min.
Series [5] in a line: plasma membrane (50 µg) isolated from human atrial appendage, Minus Chymostatin group. As to conditions: 37°C, up to 60 min.
Series [6] is described as follows: plasma membrane (50 µg) isolated from human atrial appendage, No RAS inhibitors group. As to conditions: 37°C, up to 60 min.
Series [7] in a line: plasma membrane (50 µg) isolated from human atrial appendage, All RAS inhibitors group. As to conditions: 37°C, up to 60 min.
The test system of series [8] is human leukocyte elastase. As to conditions: cited from earlier work.
Series [9] can be described thus: plasma membrane of six human atrial tissues in 50 mM Tris buffer (pH 8.0) containing 1.5 M NaCl and 1% dimethylsulphoxide. The conditions noted are these: 37°C, up to 180 min.
Series [10] can be described thus: plasma membrane of six human atrial tissues in 50 mM Tris buffer (pH 8.0) containing 1.5 M NaCl and 1% dimethylsulphoxide, with chymostatin. The conditions noted are these: 37°C, up to 180 min.
Series [11] deals with protein A purified polyclonal antibody directed to the COOH-terminus of human Ang-(1-12). Nature of the series: Binding affinity and cross-reactivity of protein A purified polyclonal Ang-(1-12) antibody (IgG). The conditions noted are these: protein A purified polyclonal antibody (IgG) to human Ang-(1-12); cross-reactivity. Here is the method: Left atrial tissues from human cardiac patient were fixed in 4% paraformaldehyde for 24 h and then transferred into 70% ethanol. After dehydration, the tissues were embedded in paraffin and each section was cut in 5-µm thick sections. Immunohistochemistry was performed using well characterized protein A purified polyclonal antibody directed to the COOH-terminus of full length of human Ang-(1-12) sequence [Asp^1-Arg^2-Val^3-Tyr^4-Ile^5-His^6-Pro^7-Phe^8-His^9-Leu^10-Val^11-Ile^12] (AnaSpec, San Jose, CA). The binding affinity and cross-reactivity of protein A purified antibody (IgG) was checked for human Ang-(1-12) and small Ang peptides [Ang I, Ang II and Ang-(1-7)]. […] The antibody was independently used to detect immunoreactive Ang-(1-12) in human atrial tissue using the avidin-biotin horseradish peroxidase techniques as previously reported by our laboratory, [11]. Briefly, slides were deparaffinized in xylene (15 min), subsequently dipped in ethanol (100%, 95% and 75%, respectively) and washed in double distilled water. The clear slides were incubated in 3% hydrogen peroxide to block the endogenous peroxidase. […]

Entries after “also recorded” stand apart in the source; their conditions may differ. Marks after values point to notes of the source that are not given here. Peptide text beside a SMILES is read from it.

A word on the EC50: it is the concentration that produces a half-maximal response. Higher therefore signals lower potency in that assay.

Consider `CC[C@H](C)[C@H](NC(=O)[C@@H](NC(=O)[C@H](CC(C)C)NC(=O)[C@H](Cc1c[nH]cn1)NC(=O)[C@H](Cc1ccccc1)NC(=O)[C@@H]1CCCN1C(=O)[C@H](Cc1c[nH]cn1)NC(=O)[C@@H](NC(=O)[C@H](Cc1ccc(O)cc1)NC(=O)[C@@H](NC(=O)[C@H](CCCNC(=N)N)NC(=O)[C@@H](N)CC(=O)O)C(C)C)[C@@H](C)CC)C(C)C)C(=O)O` [Ang-(1-12), angiotensin-(1-12)] (H-DRVYIHPFHLVI-OH), for which the “Percent of ^125I-Ang-(1-12) parent control remained unmetabolized” value is 98±7% in [1] (All RAS inhibitors (plus lisinopril, SCH39370, MLN-4760, chymostatin; 50 µM each)); 31±13 ^a % in series [1] (Minus chymostatin (all inhibitors except chymase inhibitor; 50 µM each)); 98±5% in [1] (Minus lisinopril (all inhibitors except ACE inhibitor; 50 µM each)); 22±10 ^a % in [1] (NO RAS inhibitors (only amastatin, bestatin, benzyl succinate, PCMB; 50 µM each)).
On to `CC(C)C[C@H](NC(=O)[C@@H](NC(=O)N[C@@H](Cc1ccccc1)C(=O)O)[C@@H]1CCN=C(N)N1)C(=O)N[C@H](C=O)Cc1ccccc1` [chymostatin, Chymostatin], for which, in [2], the “hydrolysis of N-suc-AAPF-pNA by human plasma membrane in the presence of inhibitor” value is on record as “completely blocked”. Moreover, the “inhibition of Ang I induced carotid artery vasoconstriction” value in series [3] is recorded as 80%.
In the case of “H-Asp^1-Arg^2-Val^3-Tyr^4-Ile^5-His^6-Pro^7-Phe^8-His^9-Leu^10-Val^11-Ile^12-OH”, the fragment found entry is “Ang II, minor” in [4]; “Ang I, minor” in series [5]; “Ang I, minor” in [6]; “Ang I, minor; also recorded: Ang II, minor” in [7]. Further, the cleaved bond entry is “Phe8-His9, major” in [5] and “Phe8-His9, major” in series [6].
Turning to “N-Succinyl-Ala-Ala-Pro-Phe-p-nitroanilide”, the not cleaved entry is recorded as “not hydrolyzed by human leukocyte elastase” in series [8] and “hydrolysis completely blocked in the presence of chymostatin” in [10]. The fragment found entry in series [9] was “p-nitroaniline”.
Molecule “angiotensin II (DRVYIHPF; Angiotensin-2; UniProt P01019 25-32, looked up) [Ang II, angiotensin peptide, main metabolic product of ^125I-Ang-(1-12)]” showed an EC50 in [11] of 0.28 ± 0.02 nM.
angiotensin-(1-7) [Ang-(1-7)]: in [11], the “binding affinity of the antibody (EC50)” value is reported as “below detection”.
